Test results reported in publication PMC12073402, “A Selective MAP3K1 Inhibitor Facilitates Discovery of NPM1 as a Member of the Network” (Molecules, 2025).

Legend:
Test in all cases: KiNativ kinome profiling in PANC-1 lysate
Format in all cases: binding
MARK3 = molecular target: T1, MARK3 (Homo sapiens, UniProt P27448); details: Lys1
T1 construct: endogenous in cells; host or cells: PANC-1 cell lysate
How it was run: (§1)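 PANC-1 lysates were incubated with 5 μM inhibitor or DMSO, then labeled with a desthiobiotin-ATP acyl-phosphate probe that biotinylates conserved kinase lysines. Tryptic peptides were streptavidin-enriched and quantified by LC-MS/MS, reported as % change in MS signal from duplicate treated and duplicate control samples.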

CDK6 = molecular target: T2, CDK6 (Homo sapiens, UniProt Q00534); details: Lys2
T2 construct: endogenous in cells; host or cells: PANC-1 cell lysate
How it was run: as §1

MLK3 = molecular target: T3, MLK3 (Homo sapiens, UniProt Q16584); details: Lys2
T3 construct: endogenous in cells; host or cells: PANC-1
How it was run: as §1

MAP4K5 = molecular target: T4, MAP4K5 (Homo sapiens, UniProt Q9Y4K4)
T4 construct: endogenous in cells; host or cells: PANC-1 cell lysate
T4 sequence (Q9Y4K4 whole entry): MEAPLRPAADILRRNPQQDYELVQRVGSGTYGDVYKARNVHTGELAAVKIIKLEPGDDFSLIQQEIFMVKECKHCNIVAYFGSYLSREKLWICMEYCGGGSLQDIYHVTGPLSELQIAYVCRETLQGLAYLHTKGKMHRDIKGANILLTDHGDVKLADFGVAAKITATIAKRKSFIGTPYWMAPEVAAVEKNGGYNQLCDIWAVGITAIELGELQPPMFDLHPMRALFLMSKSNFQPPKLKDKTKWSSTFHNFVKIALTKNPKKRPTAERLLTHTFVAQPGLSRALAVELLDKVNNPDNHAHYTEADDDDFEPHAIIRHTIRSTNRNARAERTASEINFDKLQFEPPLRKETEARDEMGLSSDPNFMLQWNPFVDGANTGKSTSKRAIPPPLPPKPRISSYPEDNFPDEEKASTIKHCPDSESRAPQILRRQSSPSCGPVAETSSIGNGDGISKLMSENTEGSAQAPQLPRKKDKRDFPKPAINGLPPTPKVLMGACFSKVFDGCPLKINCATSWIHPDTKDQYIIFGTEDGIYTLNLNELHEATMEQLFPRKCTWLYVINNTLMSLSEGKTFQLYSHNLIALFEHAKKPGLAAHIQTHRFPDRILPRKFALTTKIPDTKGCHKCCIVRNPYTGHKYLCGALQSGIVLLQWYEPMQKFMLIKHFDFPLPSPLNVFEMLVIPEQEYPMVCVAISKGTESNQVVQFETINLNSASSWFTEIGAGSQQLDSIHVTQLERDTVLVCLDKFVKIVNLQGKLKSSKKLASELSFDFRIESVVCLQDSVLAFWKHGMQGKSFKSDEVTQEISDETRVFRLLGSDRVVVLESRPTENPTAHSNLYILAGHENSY
How it was run: as §1

MAST3 = molecular target: T5, MAST3 (Homo sapiens, UniProt O60307); details: Lys2
T5 construct: endogenous in cells; host or cells: PANC-1
How it was run: as §1

MAP3K15, MAP3K5, MAP3K6 = molecular target: T6, MAP3K15, MAP3K5, MAP3K6 (Homo sapiens, UniProt Q6ZN16); details: 5 μM; PANC-1 lysate
T6 construct: endogenous in cells; host or cells: PANC-1 cell lysate
How it was run: as §1

ATM = molecular target: T7, ATM (Homo sapiens, UniProt Q13315); details: ATP
T7 construct: endogenous in cells; host or cells: PANC-1 cell lysate
How it was run: as §1

NEK8 = molecular target: T8, NEK8 (Homo sapiens, UniProt Q86SG6); details: Lys2
T8 construct: endogenous in cells; host or cells: PANC-1 cell lysate
How it was run: as §1

RON = molecular target: T9, RON (Homo sapiens, UniProt Q04912); details: Lys1
T9 construct: endogenous in cells; host or cells: PANC-1 cell lysate
How it was run: as §1

FER = molecular target: T10, FER (Homo sapiens, UniProt P16591)
T10 construct: endogenous in cells; host or cells: PANC-1 lysate
T10 sequence (P16591 whole entry): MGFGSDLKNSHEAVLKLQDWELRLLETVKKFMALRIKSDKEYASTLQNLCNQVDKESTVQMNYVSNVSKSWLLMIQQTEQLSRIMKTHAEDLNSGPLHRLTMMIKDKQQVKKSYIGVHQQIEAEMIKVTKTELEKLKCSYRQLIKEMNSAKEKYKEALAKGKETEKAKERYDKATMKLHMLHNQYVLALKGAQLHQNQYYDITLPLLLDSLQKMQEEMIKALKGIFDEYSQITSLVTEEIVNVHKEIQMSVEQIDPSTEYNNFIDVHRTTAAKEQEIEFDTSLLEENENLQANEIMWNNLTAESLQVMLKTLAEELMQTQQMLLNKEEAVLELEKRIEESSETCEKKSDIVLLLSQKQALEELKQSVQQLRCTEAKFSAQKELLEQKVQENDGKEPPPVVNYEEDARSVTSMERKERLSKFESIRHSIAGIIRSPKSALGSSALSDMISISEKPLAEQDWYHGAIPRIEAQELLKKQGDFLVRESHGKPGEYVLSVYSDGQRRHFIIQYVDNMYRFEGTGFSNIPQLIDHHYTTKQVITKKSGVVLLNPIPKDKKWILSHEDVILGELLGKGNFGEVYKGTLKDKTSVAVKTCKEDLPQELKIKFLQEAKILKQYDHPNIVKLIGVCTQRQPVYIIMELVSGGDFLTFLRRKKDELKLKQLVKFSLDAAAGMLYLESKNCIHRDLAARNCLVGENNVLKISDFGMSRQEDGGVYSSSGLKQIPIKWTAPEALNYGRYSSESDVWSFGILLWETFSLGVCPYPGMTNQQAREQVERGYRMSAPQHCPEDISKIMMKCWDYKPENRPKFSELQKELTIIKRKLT
How it was run: as §1

PKD1 = molecular target: T11, PKD1 (Homo sapiens, UniProt Q15139); details: Lys1
T11 construct: endogenous in cells; host or cells: PANC-1 cell lysate
How it was run: as §1

[1] = system: RSK1 domain1, RSK2 domain1, RSK3 domain1; details: 5 µM; Lys2; DLKPENILLDEEGHIK
How it was run: as §1

PLK2 = molecular target: T12, PLK2 (Homo sapiens, UniProt Q9NYY3); details: Lys2
T12 construct: endogenous in cells; host or cells: PANC-1 cell lysate
How it was run: as §1

BRAF, RAF1 = details: 5 µM; Activation Loop; IGDFGLATVKSR
How it was run: as §1

NEK4 = molecular target: T13, NEK4 (Homo sapiens, UniProt P51957); details: Lys2
T13 construct: endogenous in cells; host or cells: PANC-1 cell lysate
How it was run: as §1

MST2 = molecular target: T14, MST2 (Homo sapiens, UniProt Q13188); details: Lys1
T14 construct: endogenous in cells; host or cells: PANC-1
How it was run: as §1

ATR = molecular target: T15, ATR (Homo sapiens, UniProt Q13535); details: ATP
T15 construct: endogenous in cells; host or cells: PANC-1 cell lysate
How it was run: as §1

GCN2 domain2 = molecular target: T16, GCN2 domain2 (Homo sapiens, UniProt Q9P2K8)
T16 construct: we opted to conduct a kinome screen (KiNativ) in PANC-1 cell lysates; endogenous in cells; host or cells: PANC-1 cell lysate
T16 sequence (Q9P2K8 whole entry, the tested form may be a part): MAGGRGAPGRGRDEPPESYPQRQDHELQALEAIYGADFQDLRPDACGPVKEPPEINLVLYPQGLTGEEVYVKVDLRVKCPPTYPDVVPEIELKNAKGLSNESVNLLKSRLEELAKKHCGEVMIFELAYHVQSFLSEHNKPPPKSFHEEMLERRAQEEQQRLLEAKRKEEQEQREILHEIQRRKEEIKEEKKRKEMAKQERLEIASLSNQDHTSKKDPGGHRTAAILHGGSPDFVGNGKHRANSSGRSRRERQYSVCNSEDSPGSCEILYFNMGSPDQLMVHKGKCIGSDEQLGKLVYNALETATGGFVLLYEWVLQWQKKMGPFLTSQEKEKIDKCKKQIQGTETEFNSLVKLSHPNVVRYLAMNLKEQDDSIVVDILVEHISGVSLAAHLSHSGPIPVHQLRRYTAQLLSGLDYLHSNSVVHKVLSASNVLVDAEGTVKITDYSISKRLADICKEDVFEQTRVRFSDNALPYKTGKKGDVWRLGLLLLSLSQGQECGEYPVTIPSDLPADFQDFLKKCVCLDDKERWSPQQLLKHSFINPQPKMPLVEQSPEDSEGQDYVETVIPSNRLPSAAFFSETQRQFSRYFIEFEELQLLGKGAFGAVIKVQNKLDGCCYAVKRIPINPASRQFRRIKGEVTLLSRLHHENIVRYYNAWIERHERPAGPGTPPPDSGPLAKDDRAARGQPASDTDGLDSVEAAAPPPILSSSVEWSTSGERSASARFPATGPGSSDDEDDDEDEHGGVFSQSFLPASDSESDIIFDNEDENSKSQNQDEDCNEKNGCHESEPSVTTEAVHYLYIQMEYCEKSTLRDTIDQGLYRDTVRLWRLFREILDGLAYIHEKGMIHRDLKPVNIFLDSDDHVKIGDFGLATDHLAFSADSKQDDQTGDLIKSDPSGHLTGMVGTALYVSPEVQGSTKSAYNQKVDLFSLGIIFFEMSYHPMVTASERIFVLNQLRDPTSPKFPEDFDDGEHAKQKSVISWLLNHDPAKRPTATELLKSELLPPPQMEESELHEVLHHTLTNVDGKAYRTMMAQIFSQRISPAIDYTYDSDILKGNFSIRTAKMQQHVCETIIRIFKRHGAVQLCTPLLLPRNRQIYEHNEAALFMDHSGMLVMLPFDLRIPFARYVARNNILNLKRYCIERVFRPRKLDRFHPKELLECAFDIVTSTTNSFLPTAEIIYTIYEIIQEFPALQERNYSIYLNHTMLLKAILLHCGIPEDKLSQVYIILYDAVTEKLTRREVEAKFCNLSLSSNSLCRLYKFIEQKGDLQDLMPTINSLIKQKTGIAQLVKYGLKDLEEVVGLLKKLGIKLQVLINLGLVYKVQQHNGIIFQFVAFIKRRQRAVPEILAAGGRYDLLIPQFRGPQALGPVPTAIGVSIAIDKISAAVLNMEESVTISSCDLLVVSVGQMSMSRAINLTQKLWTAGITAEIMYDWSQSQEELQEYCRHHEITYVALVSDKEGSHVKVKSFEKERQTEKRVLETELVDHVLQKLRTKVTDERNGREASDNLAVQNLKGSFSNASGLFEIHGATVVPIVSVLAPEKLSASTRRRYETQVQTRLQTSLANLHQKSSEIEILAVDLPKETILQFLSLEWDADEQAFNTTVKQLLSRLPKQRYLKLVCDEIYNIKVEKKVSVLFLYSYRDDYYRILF
How it was run: as §1

LKB1 = molecular target: T17, LKB1 (Homo sapiens, UniProt Q15831); details: Lys2
T17 construct: we opted to conduct a kinome screen (KiNativ) in PANC-1 cell lysates; endogenous in cells; host or cells: PANC-1 cell lysate
How it was run: as §1

STLK6 = molecular target: T18, STLK6 (Homo sapiens, UniProt Q9C0K7); details: Lys1
T18 construct: endogenous in cells; host or cells: PANC-1 cell lysate
How it was run: as §1

TBK1 = molecular target: T19, TBK1 (Homo sapiens, UniProt Q9UHD2); details: Lys1
T19 construct: endogenous in cells; host or cells: PANC-1 cell lysate
How it was run: as §1

MAP3K4 = molecular target: T20, MAP3K4 (Homo sapiens, UniProt Q9Y6R4)
T20 construct: endogenous in cells; host or cells: PANC-1 cell lysate
T20 sequence (Q9Y6R4 whole entry): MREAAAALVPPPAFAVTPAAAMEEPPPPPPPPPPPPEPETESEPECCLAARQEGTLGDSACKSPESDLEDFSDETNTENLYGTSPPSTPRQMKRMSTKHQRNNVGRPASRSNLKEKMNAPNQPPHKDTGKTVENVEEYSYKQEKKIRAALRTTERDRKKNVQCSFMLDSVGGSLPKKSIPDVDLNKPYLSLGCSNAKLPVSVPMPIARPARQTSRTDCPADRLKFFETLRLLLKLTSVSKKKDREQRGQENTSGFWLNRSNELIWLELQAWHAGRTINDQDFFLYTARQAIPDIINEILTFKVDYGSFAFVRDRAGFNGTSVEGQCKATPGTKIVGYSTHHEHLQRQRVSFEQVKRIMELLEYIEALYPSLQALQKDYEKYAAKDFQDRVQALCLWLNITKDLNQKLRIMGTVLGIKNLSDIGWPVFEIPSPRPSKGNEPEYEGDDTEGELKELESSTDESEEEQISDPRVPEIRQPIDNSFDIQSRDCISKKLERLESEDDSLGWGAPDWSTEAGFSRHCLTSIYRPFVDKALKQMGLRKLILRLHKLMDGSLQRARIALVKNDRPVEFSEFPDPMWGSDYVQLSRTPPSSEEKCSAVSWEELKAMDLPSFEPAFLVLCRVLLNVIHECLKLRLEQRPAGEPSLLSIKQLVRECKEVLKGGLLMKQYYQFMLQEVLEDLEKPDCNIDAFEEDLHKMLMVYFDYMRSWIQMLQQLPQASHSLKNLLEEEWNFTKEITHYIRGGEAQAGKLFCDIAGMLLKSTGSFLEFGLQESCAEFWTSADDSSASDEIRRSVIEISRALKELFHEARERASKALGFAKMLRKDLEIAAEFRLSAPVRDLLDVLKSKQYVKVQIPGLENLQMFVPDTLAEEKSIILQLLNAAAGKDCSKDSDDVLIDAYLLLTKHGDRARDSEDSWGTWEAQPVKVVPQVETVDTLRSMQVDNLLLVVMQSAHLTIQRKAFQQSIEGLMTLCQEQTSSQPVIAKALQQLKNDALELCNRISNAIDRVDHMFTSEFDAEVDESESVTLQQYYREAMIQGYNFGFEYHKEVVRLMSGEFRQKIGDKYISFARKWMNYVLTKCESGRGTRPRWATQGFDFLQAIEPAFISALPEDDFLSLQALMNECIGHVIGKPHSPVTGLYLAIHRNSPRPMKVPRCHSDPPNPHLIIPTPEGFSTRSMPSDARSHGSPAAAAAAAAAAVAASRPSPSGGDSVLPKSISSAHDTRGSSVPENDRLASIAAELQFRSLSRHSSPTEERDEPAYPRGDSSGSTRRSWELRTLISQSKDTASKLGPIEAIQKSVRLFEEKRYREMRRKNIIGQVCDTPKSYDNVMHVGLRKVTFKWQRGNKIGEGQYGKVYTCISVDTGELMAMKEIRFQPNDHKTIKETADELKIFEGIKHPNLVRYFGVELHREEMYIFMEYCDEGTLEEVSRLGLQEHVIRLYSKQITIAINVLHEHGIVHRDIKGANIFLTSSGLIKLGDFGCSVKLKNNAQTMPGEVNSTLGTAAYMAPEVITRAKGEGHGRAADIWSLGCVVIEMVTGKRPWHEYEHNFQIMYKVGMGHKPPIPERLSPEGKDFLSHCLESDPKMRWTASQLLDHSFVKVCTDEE
How it was run: as §1

CK1a = molecular target: T21, CK1a (Homo sapiens, UniProt P48729); details: Lys2
T21 construct: endogenous in cells; host or cells: PANC-1 cell lysate
How it was run: as §1

STK33 = molecular target: T22, STK33 (Homo sapiens, UniProt Q9BYT3); details: Lys2
T22 construct: endogenous in cells; host or cells: PANC-1 cell lysate
How it was run: as §1

TAO1, TAO3 = details: 5 µM; Lys2; DIKAGNILLTEPGQVK
How it was run: as §1

MET = molecular target: T23, MET (Homo sapiens, UniProt P08581); details: ATP Loop
T23 construct: endogenous in cells; host or cells: PANC-1
How it was run: as §1

MARK2, MARK3 = details: 5 µM; Lys2; DLKAENLLLDADMNIK
How it was run: as §1

For `Cn1cc(-c2cnc3ccc(NC(=O)Nc4ccc(F)c(C(F)(F)F)c4)cc3n2)cn1` [51-106, 1-(4-Fluoro-3-(trifluoromethyl)phenyl)-3-(3-(1-methyl-1H-pyrazol-4-yl)quinoxalin-6-yl)urea], the inhibition at 5 µM (MARK3) was no more than 0%, the inhibition at 5 µM (CDK6) was no more than 0% and the inhibition at 5 µM (MLK3) was 1.3%. For the same compound, the inhibition at 5 µM (MAP4K5; Lys1, NVHTGELAAVKIIK) was 6%, the inhibition at 5 µM (MAP4K5; Lys2, DIKGANILLTDHGDVK) was no more than 0% and the inhibition at 5 µM (MAST3) was no more than 0%. For the same compound, the “inhibition of MAP3K15 (in words)” value (MAP3K15, MAP3K5, MAP3K6) was “did not inhibit”, the inhibition at 5 µM (ATM) was 7.4% and the inhibition at 5 µM (NEK8) was no more than 0%. For the same compound, the inhibition at 5 µM (RON) was no more than 0%, the “% Inhibition” value (FER; 5 µM, ATP Loop, QEDGGVYSSSGLKQIPIK) was “NB (NB = No Binding (≤ 0))” and the inhibition at 5 µM (FER; Lys1, […]) was no more than 0%. For the same compound, the inhibition at 5 µM (PKD1) was no more than 0%, the “% Inhibition” value [1] was “NB (NB = No Binding (≤ 0))” and the inhibition at 5 µM (PLK2) was 1.4%. The “% Inhibition” value (BRAF, RAF1) was 12.7%, the inhibition at 5 µM (NEK4) was 5.8% and the inhibition at 5 µM (MST2) was 0.8%. It also gave an inhibition at 5 µM (ATR) of 2.2%, an inhibition at 5 µM (GCN2 domain2; Lys1, LDGCCYAVKR) of 5.3% and an inhibition at 5 µM (GCN2 domain2; Lys2, DLKPVNIFLDSDDHVK) of no more than 0%. For the same compound, the inhibition at 5 µM (LKB1) was no more than 0%, the inhibition at 5 µM (STLK6) was 5.8% and the inhibition at 5 µM (TBK1) was 5.7%. The inhibition at 5 µM (MAP3K4; Lys1, VYTCISVDTGELMAMKEIR) was 8.6%, the inhibition at 5 µM (MAP3K4; Lys2, DIKGANIFLTSSGLIK) was 7.1% and the inhibition at 5 µM (CK1a) was 11.1%. The inhibition at 5 µM (STK33) was 26.6%, the “% Inhibition” value (TAO1, TAO3) was 4.9% and the inhibition at 5 µM (MET) was 8.3%. For the same compound, the “% Inhibition” value (MARK2, MARK3) was 11.3%.
